# Source: patent US10106510B2, “Substituted isoxazoles for treating cancer” (EPIZYME, INC., priority 2014, dated 2018)
# Columns and labels:
# SMYD3 [1] = target: T1, SMYD3 (Homo sapiens (Human), UniProt Q9H7B4); assay: SMYD3 biochemical assay (SMYD3 enzyme assay on MEKK2 protein substrate, scintillation proximity assay); settings: 3H-SAM, SPA, IC50 values are an average of n = 1 to n = 50, read-out: SMYD3 Biochem IC50
# Source text: S-adenosylmethionine (SAM), S-adenosylhomocysteine (SAH), Tris, Tween20, dimethylsulfoxide (DMSO), bovine skin gelatin (BSG), and Tris(2-carboxyethyl)phosphine hydrochloride solution (TCEP) were purchased from Sigma-Aldrich at the highest level of purity possible. ^3H-SAM was purchase from American Radiolabeled Chemicals with a specific activity of 80 Ci/mmol. 384-well opaque white OptiPlates and SPA beads (Perkin Elmer, catalog # RPNQ0013) were purchased from PerkinElmer.
# N-terminally GST-tagged MEKK2 (MAP3K2) protein corresponding to reference sequence AAF63496.3 was purchased from Life Technologies (catalog # PV4010). […] Protein identity was confirmed by MS/MS analysis after proteolytic digestion. The protein sequence used was:
# Full-length human SMYD3 isoform 1 (BAB86333) was inserted into a modified pET21b plasmid containing a His6 tag and TEV and SUMO cleavage sites. Because two common variants of SMYD3 exist in the population, site directed mutagenesis was subsequently performed to change amino acid 13 from an asparagine to a lysine, resulting in plasmid pEPZ533.
# E. coli (BL21 codonplus RIL strain, Stratagene) were transformed with plasmid pEPZ553 by mixing competent cells and plasmid DNA and incubating on ice for 30minutes followed by heat shock at 42° C. for 1 minute and cooling on ice for 2 minutes. Transformed cells were grown and selected on LB agar with 100 μg/mL ampicillin and 17 μg/mL chloramphenicol at 37° C. overnight. A single clone was used to inoculate 200 mL of LB medium with 100 μg/mL ampicillin and 17 μg/mL chloramphenicol and incubated at 37° C. on an orbital shaker at 180 rpm. Once in log growth, the culture was diluted 1:100 into 2 L of LB medium and grown until OD600 was about 0.3 after which the culture was incubated at 15° C. and 160 rpm. Once OD600 reached about 0.4, IPTG was added to a final concentration of 0.1 mM and the cells were grown overnight at 15° C. and 160 rpm. Cells were harvested by centrifugation at 8000 rpm, for 4 minutes at 4° C. and stored at −80° C. for purification.
# The column was washed with Buffer B (Buffer A plus 20 mM imidazole) and His-tagged SMYD3 was eluted with Buffer C (Buffer A plus 300 mM imidazole). The His tag, TEV and SUMO cleavage sites were removed generating native SMYD3 by addition of ULP1 protein at a ratio of 1:200 (ULP1:SMYD3). Imidazole was removed by dialysis overnight in Buffer A. The dialyzed solution was applied to a second Nickel column and the native SMYD3 protein was collected from the column flow-through. The flow-through was dialyzed in Buffer D (25 mM Tris, 5% glycerol, 5 mM β-mercaptoethanol, 50 mM NaCl, pH7.8) and ULP1 was removed using a Q sepharose fast flow column.
# General Procedure for SMYD3 Enzyme Assays on MEKK2 Protein Substrate
# The assays were all performed in a buffer consisting of 25 mM Tris-Cl pH 8.0, 1 mM TCEP, 0.005% BSG, and 0.005% Tween 20, prepared on the day of use. Compounds in 100% DMSO (1 ul) were spotted into a 384-well white opaque OptiPlate using a Bravo automated liquid handling platform outfitted with a 384-channel head (Agilent Technologies). DMSO (1 ul) was added to Columns 11, 12, 23, 24, rows A-H for the maximum signal control and 1 ul of SAH, a known product and inhibitor of SMYD3, was added to columns 11, 12, 23, 24, rows I-P for the minimum signal control. A cocktail (40 ul) containing the SMYD3 enzyme was added by Multidrop Combi (Thermo-Fisher). The compounds were allowed to incubate with SMYD3 for 30 min at room temperature, then a cocktail (10 ul) containing SAM and MEKK2 was added to initiate the reaction (final volume=51 ul).
# SMYD3 [2] = target: T1, SMYD3; assay: SMYD3 cell assay (Trimethyl-MEKK2 In-Cell Western in 293T/17 cells); format: cell-based; settings: 293T/17 cells transfected with MEKK2-flag and SMYD3, trimethyl-MEKK2 In-Cell Western, 24 hours, top concentration 40 μM; average of n = 1 to n = 50
# Source text: Trimethyl-MEKK2-In-Cell Western Assay
# 293T/17 adherent cells were purchased from ATCC (American Type Culture Collection), Manassas, Va., USA. MEM/Glutamax medium, Optimem Reduced Serum medium, penicillin-streptomycin, 0.05% trypsin and 1×D-PBS were purchased from Life Technologies, Grand Island, N.Y., USA. PBS-10× was purchased from Ambion, Life Technologies, Grand Island, N.Y., USA. PBS with Tween 20 (PBST (10×)) was purchased from KPL, Gaithersburg, Md., USA. Tet System FBS-approved FBS US Source was purchased from Clontech, Mountain View, Calif., USA. Odyssey blocking buffer, 800 CW goat anti-rabbit IgG (H+L) antibody, 680 CW Goat anti-mouse IgG (H+L) and Licor Odyssey infrared scanner were purchased from Licor Biosciences, Lincoln, Nebr., USA. Tri-methyl-Lysine [A260]-MEKK2 antibody, MEKK2 and SMYD3 plasmids were made at Epizyme. Anti-flag monoclonal mouse antibody was purchased from Sigma, St. Louis, Mo., USA. Methanol was purchased from VWR, Franklin, Mass., USA. 10%) Tween 20 was purchased from KPL, Inc., Gaithersburg, Md., USA. Fugene was purchased from Promega, Madison, Wis., USA. The Biotek ELx405 was purchased from BioTek, Winooski, Vt., USA. The multidrop combi was purchased from Thermo Scientific, Waltham, Mass., USA.
# 293T/17 adherent cells were maintained in growth medium (MEM/Glutamax medium supplemented with 10% v/v Tet System FBS and cultured at 37° C. under 5% CO2.
# Cell Treatment, In Cell Western (ICW) for Detection of Trimethyl-Lysine-MEKK2 and MEKK2
# 293T/17 cells were seeded in assay medium at a concentration of 33,333 cells per cm^2 in 30 mL medium per T150 flask and incubated at 37° C. under 5% CO2. Plasmids were prepared for delivery to cells by first mixing 1350 μL Opti-MEM with Fugene (81 μL) in a sterile Eppendorf and incubated for five minutes at room temperature (RT). MEKK2-flag (13.6 ug/T150) MEKK2 p3XFlag-CMV-14 with C-3XFlag and SMYD3 (0.151 ug/T150) SMYD3 p3XFlag-CMV-14 without C-3XFlag plasmids were aliquotted to a 1.7 mL sterile microfuge tube. The gene ID for MEKK2 and SMYD3 is NM_006609.3 and Q9H7B4, respectively. Entire volume of Opti-MEM/Fugene mixture was then added to a microfuge tube containing DNA plasmid, mixed and then incubated××15 minutes at RT. The medium on the 293T/17 cells was refreshed, and the DNA/Fugene complex is added aseptically to each flask, rocked gently, and incubated at 37 C for 5 hours. Medium was then removed, and cells were washed once with PBS in the flask. Trypsin 0.05% (3 mL) was added and cells incubated for three minutes. Room temperature MEM+10% Tet system FBS was added and cells were mixed gently, and counted using the Vi-cell. Cells were seeded at 100,000 cells/mL in 50 μL MEM/10% Tet FBS/Pen/Strep to a 384 well black/clear poly-D-lysine coated plate containing test agent diluted in DMSO. The final top concentration of test compound was 40 μM. […] Plates were incubated ×30 minutes at RT in low-airflow area, followed by incubation at 37° C. under 5% CO2 for 24 hours. Medium was aspirated from all wells of assay plates prior to fixation and permeabilization with ice cold (−20° C.) methanol (90 μL/well) for ten minutes. Plates were rinsed with PBS three times on BioTek ELx405. PBS was removed with a final aspiration, and Odyssey blocking buffer (50 μL/well) was added to each well and incubated for one hour at RT. Primary antibody solution was prepared (anti-trimethyl-MEKK2 at 1:600 dilution plus mouse anti-flag antibody at 1:10,000 dilution in diluent (Odyssey Blocking buffer+0.1% Tween 20)) and 20 μL per well was dispensed using the Multidrop Combi. Assay plates were then sealed with foil, and incubated overnight at 4° C. Plates were washed five times with PBS-Tween (IX) on Biotek ELx405 and blotted on paper towel to remove excess reagent. […]
# T1 sequence (Q9H7B4 whole entry): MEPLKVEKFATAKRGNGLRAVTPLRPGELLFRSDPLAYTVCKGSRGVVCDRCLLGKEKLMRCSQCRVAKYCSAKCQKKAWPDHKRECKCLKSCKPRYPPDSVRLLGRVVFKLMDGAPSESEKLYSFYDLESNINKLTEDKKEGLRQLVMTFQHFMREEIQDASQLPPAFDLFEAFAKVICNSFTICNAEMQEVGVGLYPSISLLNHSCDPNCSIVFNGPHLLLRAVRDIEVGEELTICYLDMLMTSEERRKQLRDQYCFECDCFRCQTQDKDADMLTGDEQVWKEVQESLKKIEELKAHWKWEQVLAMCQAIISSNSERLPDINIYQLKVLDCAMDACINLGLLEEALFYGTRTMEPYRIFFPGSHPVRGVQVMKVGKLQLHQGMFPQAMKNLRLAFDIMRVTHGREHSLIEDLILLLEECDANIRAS
SMILES,IC50 (SMYD3 [1]) [nM],IC50 (SMYD3 [2]) [nM]
"CCc1cc(C(=O)N[C@H]2CC[C@H](NC(=O)C[C@@H](C)N)C[C@H]2CC)no1 (mixture of isomers) [Cpd. No. 6, Mixture of N-((1S,2R,4S)-4-((R)-3-aminobutanamido)-2-ethylcyclohexyl)-5-ethylisoxazole-3-carboxamide and N-((1R,2S,4R)-4-((R)-3-aminobutanamido)-2-ethylcyclohexyl)-5-ethyl-isoxazole-3-carboxamide; (1S,2R,4S) isomer is depicted]",97.3,964
"N[C@H]1CC[C@H](C(=O)N[C@H]2CC[C@H](NC(=O)c3cc(C4CC4)on3)CC2)C1 [compound 32, N-((1S,4r)-4-((1S,3S)-3-aminocyclopentane-1-carboxamido)cyclohexyl)-5-cyclopropylisoxazole-3-carboxamide]",562,5150
"NCCCN(C(=O)CCN)[C@H]1CC[C@H](NC(=O)c2cc(C3CC3)on2)CC1 [compound 33, N-((1r,4r)-4-(3-amino-N-(3-aminopropyl)propanamido)cyclohexyl)-5-cyclopropylisoxazole-3-carboxamide]",428,> 40000

# Further molecules by falling IC50 (SMYD3 [1]), results first:
IC50 (SMYD3 [1]) [nM],IC50 (SMYD3 [2]) [nM],SMILES
400,10100,"C[C@@H](N)CC(=O)N[C@H]1CC[C@H](NC(=O)c2cc(C3CC3)on2)CC1 [compound 5, N-((1R,4r)-4-((R)-3-aminobutanamido)cyclohexyl)-5-cyclopropylisoxazole-3-carboxamide]"
188,1970,"O=C(CCN1CCCC1)N[C@H]1CC[C@H](NC(=O)c2cc(C3CC3)on2)CC1 [compound 11, 5-cyclopropyl-N-((1r,4r)-4-(3-(pyrrolidin-1-yl)propanamido)cyclohexyl)isoxazole-3-carboxamide]"
28.6,255,"C[C@@H](N)CC(=O)N[C@H]1CC[C@H](NC(=O)c2cc(C3CC3)on2)[C@H](Cc2ccccc2)C1 (mixture of isomers) [Cpd. No. 39, Mixture of N-((1S,2R,4S)-4-((R)-3-aminobutanamido)-2-benzylcyclohexyl)-5-cyclopropylisoxazole-3-carboxamide and N-((1R,2S,4R)-4-((R)-3-aminobutanamido)-2-benzylcyclohexyl)-5-cyclopropylisoxazole-3-carboxamide; (1S,2R,4S) isomer is depicted.]"
